Source: article PMC7313537 (PLoS ONE, 2020)
Like-named read-outs stand apart in the source and are kept apart here.

How the values were obtained:
BTK = BTK (Homo sapiens, UniProt Q06187); assay: Enzyme selectivity panel; type: biochemical; conditions: 1 mM ATP
Procedure: (§2) The kinase assays were carried out at room temperature in HEPES 50 mM, pH 7.0, NaN3 0.02%, BSA 0.01%, Orthovanadate 0.1 mM, DTT 1 mM, MgCl2 10 mM in a final volume of 10 µL. Test compounds were transferred to the plate wells by ECHO liquid handler (Labcyte, San Jose, CA) with 0.5% dimethyl sulfoxide (DMSO) in the final assay. Peptide/kinase mixtures were diluted in the appropriate enzymatic buffer and 5µL of the mixture was added to a 384-well small volume black plate. Reactions were initiated by the addition of 5 µL ATP in reaction buffer, the final reaction mixture consisted of 500 nM peptide substrate, 1 mM ATP, and appropriate amount of specific kinase. […] The plates were then sealed and centrifuged at 1800 rpm for 2 minutes. […] Half maximal inhibitory concentration (IC50) determination was performed by fitting the curve of percent control activity versus the log of the compound concentration using the GraphPad Prism 6.0 software.

PLK3 = PLK3 (Homo sapiens, UniProt Q9H4B4); assay: Enzyme selectivity panel; type: biochemical; conditions: 1 mM ATP
Procedure: as §2

MM1.S = assay: Cell viability assay (CellTiter-Glo); type: cell-based; conditions: Homo sapiens, Myeloma, lacking FGFR alterations
RSK2 = RSK2 (Homo sapiens, UniProt P51812); assay: Enzyme selectivity panel; type: biochemical; conditions: 1 mM ATP
Procedure: as §2

[1] = Intrinsic clearance in liver microsomes; type: in vitro ADME
Procedure: Aliquots were taken at 0, 10, 20, and 30 minutes and denatured with methanol. After centrifugation to remove the denatured proteins, the resulting supernatants were analyzed by LC/MS

IKKA = IKKA (Homo sapiens, UniProt O15111); assay: Enzyme selectivity panel; type: biochemical; conditions: 1 mM ATP
Procedure: as §2

EPHA2 = EPHA2 (Homo sapiens, UniProt P29317); assay: Enzyme selectivity panel; type: biochemical; conditions: 1 mM ATP
Procedure: as §2

[2] = test system: AN3CA (endometrial cancer); assay: Cell viability assay (CellTiter-Glo); type: cell-based; conditions: Homo sapiens, AN3-CA; FGFR2 N310R/N549K mutations; 72 hours; read-out: Mean GI50 ± S.D.
LOK = LOK (Homo sapiens, UniProt O94804); assay: Enzyme selectivity panel; type: biochemical; conditions: 1 mM ATP
Procedure: as §2

SRC = molecular target: T1, SRC (Homo sapiens, UniProt P12931); assay: Enzyme selectivity panel; type: biochemical; conditions: 1 mM ATP
T1 construct: purchased In-house HTRF panel (56 kinases) and PerkinElmer (161-kinase panel)
Procedure: as §2

AXL = molecular target: T2, AXL (Homo sapiens, UniProt P30530); assay: Enzyme selectivity panel; type: biochemical; conditions: 1 mM ATP
T2 construct: purchased In-house HTRF panel (56 kinases) and PerkinElmer (161-kinase panel)
Procedure: as §2

[3] = test system: myeloid/lymphoid neoplasm expressing CEP110-FGFR1; set-up: method as in PMID 29767670; conditions: single patient, CEP110-FGFR1 fusion ref 40; cited from earlier work
KMS-11 (myeloma) = assay: Cell viability assay (CellTiter-Glo); type: cell-based; conditions: Homo sapiens, IgH-FGFR3 translocation, 72 hours, read-out: Mean GI50 ± S.D.
MINK = MINK (Homo sapiens, UniProt Q8N4C8); assay: Enzyme selectivity panel; type: biochemical; conditions: 1 mM ATP
Procedure: as §2

[4] = test system: b-FGF induced growth of human umbilical vein endothelial cells (HUVEC); assay: HUVEC proliferation stimulated with b-FGF; type: cell-based; conditions: read-out: IC50 for b-FGF induced growth
CAMK2D = CAMK2D (Homo sapiens, UniProt Q13557); assay: Enzyme selectivity panel; type: biochemical; conditions: 1 mM ATP
Procedure: as §2

TGFBR1 = TGFBR1 (Homo sapiens, UniProt P36897); assay: Enzyme selectivity panel; type: biochemical; conditions: 1 mM ATP
Procedure: as §2

KG1 = assay: Cell viability assay (CellTiter-Glo); type: cell-based; conditions: Homo sapiens; KG1, parental line to KG1a
PAK4 = PAK4 (Homo sapiens, UniProt O96013); assay: Enzyme selectivity panel; type: biochemical; conditions: 1 mM ATP
Procedure: as §2

FAK = FAK (Homo sapiens, UniProt Q05397); assay: Enzyme selectivity panel; type: biochemical; conditions: 1 mM ATP
Procedure: as §2

A549 = assay: Cell viability assay (CellTiter-Glo); type: cell-based; conditions: Homo sapiens, Lung cancer, lacking FGFR alterations
JNK1 = JNK1 (Homo sapiens, UniProt P45983); assay: Enzyme selectivity panel; type: biochemical; conditions: 1 mM ATP
Procedure: as §2

CDK2 = CDK2 (Homo sapiens, UniProt P24941); assay: Enzyme selectivity panel; type: biochemical; conditions: 1 mM ATP
Procedure: as §2

[5] = Preclinical safety studies; type: in vivo
Caco-2 permeability = type: in vitro ADME; conditions: human, Caco-2; A–B at 50 μM
Procedure: (§1) The Caco-2 monolayers were incubated at 37°C, with ambient humidity, and CO2 for the duration of the transport assay. […] The apical volume was 0.2 mL and the basolateral volume was 0.6 mL. The incubation period was 120 minutes. At the end of the incubation period, 0.1 mL of sample was removed from the receiver side and an equal volume of acetonitrile was added for protein precipitation. After centrifugation, the supernatants were collected for analysis. Nadolol and metoprolol were included as low and high permeability comparators, respectively. Trans-epithelial electrical resistance was measured to ensure the integrity of the cell monolayers. Caco-2 cell monolayers with trans-epithelial electrical resistance values ≥300 Ω•cm2 were used for transport experiments.

Caco-2 cell monolayers = assay: Caco-2 permeability; type: in vitro ADME; conditions: A–B at 50 μM
Procedure: as §1

[6] = Plasma protein binding (equilibrium dialysis); type: in vitro ADME; conditions: read-out: PPB (% free)
Procedure: The final DMSO content in all cases was <0.1%. Each condition was incubated in duplicate. For protein binding determination, the Multi-Equilibrium Dialyzer System™ and diachema membranes from Harvard Apparatus (Holliston, MA) were utilized. Equilibrium dialysis was carried out in Teflon cells separated by a dialysis membrane with a molecular weight cutoff of 10,000 Daltons. […] The cells were rotated at a speed of 12 rpm in a 37°C water bath for 2 hours. Following the incubation period, buffer and serum/plasma samples were drained separately into empty preweighed glass test tubes. The tubes were reweighed, and the exact volume of sample recovered from each side of the dialysis cell was calculated using the mass. A 75-μL aliquot of each sample (buffer or serum/plasma) was added to a 96-well plate containing a protein precipitation solution of 100% methanol and 0.2 μM dextrorphan as the internal standard; 75 μL of blank buffer or plasma/serum was added to the plate to ensure identical composition across all samples. Prior to analysis, samples prepared in the 96-well plate were vigorously vortexed for approximately 5 minutes and centrifuged for 10 minutes at ~1700 × g to remove denatured proteins and particulate matter. The supernatant was transferred and analyzed using LC-MS/MS.

TF1-BCR-ABL = assay: Cell viability assay (CellTiter-Glo); type: cell-based; conditions: AML/recombinant; lacking FGFR alterations
CLK3 = CLK3 (Homo sapiens, UniProt P49761); assay: Enzyme selectivity panel; type: biochemical; conditions: 1 mM ATP
Procedure: as §2

PKCD = PKCD (Homo sapiens, UniProt Q05655); assay: Enzyme selectivity panel; type: biochemical; conditions: 1 mM ATP
Procedure: as §2

PIM2 = molecular target: T3, PIM2 (Homo sapiens, UniProt Q9P1W9); assay: Enzyme selectivity panel; type: biochemical; conditions: 1 mM ATP
T3 construct: purchased In-house HTRF panel (56 kinases) and PerkinElmer (161-kinase panel)
T3 sequence (Q9P1W9 whole entry, species assumed): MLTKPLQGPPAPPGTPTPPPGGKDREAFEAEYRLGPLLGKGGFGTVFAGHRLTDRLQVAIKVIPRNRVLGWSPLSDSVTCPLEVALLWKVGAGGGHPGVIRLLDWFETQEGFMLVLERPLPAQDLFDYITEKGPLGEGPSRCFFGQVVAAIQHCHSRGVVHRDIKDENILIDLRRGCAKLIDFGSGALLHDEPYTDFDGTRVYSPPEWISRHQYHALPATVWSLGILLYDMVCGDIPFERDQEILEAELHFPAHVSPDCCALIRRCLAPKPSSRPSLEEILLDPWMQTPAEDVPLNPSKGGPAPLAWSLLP
Procedure: as §2

T1 sequence (P12931 whole entry, species assumed): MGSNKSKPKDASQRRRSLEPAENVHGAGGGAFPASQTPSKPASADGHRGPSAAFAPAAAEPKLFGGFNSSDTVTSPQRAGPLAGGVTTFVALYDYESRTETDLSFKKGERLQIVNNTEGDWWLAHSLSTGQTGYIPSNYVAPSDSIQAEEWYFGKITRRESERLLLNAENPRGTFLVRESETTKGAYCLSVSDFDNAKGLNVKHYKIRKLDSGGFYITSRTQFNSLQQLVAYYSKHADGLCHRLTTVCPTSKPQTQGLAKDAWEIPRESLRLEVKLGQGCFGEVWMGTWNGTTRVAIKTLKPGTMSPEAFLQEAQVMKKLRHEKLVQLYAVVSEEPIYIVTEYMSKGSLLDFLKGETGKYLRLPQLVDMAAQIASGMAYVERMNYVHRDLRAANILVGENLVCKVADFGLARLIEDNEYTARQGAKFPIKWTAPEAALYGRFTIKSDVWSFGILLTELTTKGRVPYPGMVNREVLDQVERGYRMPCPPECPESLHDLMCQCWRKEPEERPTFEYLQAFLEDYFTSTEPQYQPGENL
Sequence of PKCD (Q05655 whole entry, species assumed): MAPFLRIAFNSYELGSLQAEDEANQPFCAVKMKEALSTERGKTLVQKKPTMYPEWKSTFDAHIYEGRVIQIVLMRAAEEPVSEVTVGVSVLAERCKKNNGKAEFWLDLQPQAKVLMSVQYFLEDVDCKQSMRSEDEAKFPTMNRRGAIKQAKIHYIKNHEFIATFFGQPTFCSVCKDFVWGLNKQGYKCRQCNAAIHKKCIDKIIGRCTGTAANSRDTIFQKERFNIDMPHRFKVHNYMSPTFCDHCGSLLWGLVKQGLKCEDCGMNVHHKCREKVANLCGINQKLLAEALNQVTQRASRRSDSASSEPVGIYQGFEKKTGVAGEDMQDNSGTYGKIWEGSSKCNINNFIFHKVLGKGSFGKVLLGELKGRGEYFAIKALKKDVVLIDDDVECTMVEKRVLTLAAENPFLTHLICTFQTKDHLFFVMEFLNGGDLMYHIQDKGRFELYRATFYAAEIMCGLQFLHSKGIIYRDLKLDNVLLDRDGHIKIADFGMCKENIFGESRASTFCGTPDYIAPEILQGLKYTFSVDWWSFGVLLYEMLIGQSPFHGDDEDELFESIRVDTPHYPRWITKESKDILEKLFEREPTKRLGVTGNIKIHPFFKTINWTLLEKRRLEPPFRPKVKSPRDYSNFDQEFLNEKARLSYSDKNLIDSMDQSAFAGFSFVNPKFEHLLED
Sequence of EPHA2 (P29317 24-976, species assumed): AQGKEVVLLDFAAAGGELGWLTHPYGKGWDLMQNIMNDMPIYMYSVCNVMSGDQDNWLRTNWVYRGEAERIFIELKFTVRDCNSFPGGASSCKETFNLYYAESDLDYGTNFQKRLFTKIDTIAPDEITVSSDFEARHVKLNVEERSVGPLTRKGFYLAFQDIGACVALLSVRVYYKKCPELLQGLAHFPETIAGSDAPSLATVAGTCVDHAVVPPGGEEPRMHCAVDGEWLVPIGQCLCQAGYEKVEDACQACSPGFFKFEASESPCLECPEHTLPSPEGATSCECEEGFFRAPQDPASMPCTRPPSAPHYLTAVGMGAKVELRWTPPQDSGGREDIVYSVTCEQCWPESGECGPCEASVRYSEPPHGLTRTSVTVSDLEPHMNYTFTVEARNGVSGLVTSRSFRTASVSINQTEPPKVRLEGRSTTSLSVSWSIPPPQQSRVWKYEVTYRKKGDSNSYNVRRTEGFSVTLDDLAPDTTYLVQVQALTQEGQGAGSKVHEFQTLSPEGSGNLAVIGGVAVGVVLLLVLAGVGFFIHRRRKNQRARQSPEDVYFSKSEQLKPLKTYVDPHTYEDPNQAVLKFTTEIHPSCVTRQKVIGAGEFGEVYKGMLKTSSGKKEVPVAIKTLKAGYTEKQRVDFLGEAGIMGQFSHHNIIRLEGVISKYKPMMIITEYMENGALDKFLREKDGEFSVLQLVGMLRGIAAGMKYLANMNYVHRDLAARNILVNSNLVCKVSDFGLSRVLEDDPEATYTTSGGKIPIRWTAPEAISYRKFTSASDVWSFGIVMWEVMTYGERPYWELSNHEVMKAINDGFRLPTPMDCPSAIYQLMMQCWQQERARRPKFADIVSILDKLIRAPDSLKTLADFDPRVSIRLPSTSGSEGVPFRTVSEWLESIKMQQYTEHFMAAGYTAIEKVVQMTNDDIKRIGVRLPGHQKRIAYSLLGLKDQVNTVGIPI
Sequence of FAK (Q05397 whole entry, species assumed): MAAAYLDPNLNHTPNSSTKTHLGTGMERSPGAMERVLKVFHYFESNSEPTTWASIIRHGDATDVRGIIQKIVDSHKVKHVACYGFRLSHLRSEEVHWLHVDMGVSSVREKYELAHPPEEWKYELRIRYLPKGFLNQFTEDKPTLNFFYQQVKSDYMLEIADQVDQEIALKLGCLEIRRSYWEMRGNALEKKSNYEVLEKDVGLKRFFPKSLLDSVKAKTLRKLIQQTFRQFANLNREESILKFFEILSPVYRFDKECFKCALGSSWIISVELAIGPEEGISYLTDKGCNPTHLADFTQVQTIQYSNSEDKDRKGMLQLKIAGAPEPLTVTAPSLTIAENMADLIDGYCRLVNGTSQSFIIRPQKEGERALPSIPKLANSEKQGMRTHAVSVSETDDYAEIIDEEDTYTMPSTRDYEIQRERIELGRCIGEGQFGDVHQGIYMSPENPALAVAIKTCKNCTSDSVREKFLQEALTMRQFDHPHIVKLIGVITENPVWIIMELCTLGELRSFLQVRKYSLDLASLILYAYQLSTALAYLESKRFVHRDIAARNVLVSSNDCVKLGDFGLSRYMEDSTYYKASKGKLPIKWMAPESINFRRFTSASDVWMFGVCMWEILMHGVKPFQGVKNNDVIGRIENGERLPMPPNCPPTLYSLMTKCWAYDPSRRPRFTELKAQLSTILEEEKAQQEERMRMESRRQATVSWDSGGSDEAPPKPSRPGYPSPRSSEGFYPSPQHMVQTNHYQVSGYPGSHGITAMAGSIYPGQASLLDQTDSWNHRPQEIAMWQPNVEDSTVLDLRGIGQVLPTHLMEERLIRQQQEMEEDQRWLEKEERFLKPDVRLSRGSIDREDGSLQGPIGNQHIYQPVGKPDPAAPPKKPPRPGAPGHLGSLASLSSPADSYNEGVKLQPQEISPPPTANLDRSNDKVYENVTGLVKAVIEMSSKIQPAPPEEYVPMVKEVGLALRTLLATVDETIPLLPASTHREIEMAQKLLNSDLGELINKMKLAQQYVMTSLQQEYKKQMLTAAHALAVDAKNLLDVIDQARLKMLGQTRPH
Sequence of PAK4 (O96013 whole entry, species assumed): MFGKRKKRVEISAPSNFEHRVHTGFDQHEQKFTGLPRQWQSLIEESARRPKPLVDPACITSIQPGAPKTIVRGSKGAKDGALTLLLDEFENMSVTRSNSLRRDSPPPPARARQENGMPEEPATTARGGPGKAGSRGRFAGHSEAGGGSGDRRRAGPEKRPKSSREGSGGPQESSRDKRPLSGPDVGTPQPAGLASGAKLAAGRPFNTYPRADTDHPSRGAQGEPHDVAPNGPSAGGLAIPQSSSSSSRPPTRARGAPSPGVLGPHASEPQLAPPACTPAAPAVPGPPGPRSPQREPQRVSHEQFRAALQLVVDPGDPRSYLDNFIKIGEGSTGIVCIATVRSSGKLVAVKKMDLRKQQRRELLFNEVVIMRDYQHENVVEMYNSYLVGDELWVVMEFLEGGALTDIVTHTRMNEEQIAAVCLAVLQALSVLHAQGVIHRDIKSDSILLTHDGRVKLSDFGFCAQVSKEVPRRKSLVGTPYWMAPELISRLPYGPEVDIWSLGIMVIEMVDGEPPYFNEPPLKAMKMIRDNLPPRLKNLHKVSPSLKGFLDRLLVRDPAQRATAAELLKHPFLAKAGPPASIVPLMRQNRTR
T2 sequence (P30530 26-894, species assumed): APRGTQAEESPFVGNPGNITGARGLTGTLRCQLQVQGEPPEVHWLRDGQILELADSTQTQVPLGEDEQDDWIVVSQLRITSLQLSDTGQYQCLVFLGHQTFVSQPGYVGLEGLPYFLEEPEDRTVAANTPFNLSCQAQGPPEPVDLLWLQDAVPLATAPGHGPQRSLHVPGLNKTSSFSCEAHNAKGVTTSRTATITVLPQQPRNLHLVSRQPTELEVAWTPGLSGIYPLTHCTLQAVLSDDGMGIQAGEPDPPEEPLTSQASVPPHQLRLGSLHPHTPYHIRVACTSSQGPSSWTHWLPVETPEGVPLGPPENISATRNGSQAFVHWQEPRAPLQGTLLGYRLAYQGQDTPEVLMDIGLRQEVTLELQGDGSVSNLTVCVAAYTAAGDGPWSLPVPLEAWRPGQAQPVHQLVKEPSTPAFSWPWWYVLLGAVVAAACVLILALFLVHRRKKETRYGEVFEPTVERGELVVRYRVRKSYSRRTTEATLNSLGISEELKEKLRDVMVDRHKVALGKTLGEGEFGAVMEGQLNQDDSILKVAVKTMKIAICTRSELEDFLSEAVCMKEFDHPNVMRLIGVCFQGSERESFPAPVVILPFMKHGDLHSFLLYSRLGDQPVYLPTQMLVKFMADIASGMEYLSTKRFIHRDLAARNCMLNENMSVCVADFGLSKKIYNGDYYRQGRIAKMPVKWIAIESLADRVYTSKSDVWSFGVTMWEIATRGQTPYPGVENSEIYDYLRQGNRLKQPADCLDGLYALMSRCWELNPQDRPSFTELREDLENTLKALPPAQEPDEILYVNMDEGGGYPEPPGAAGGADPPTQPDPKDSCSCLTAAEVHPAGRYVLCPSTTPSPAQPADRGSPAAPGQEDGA

`CCN1C(=O)N(c2c(F)c(OC)cc(OC)c2F)Cc2cnc3[nH]c(CN4CCOCC4)cc3c21` [INCB054828, pemigatinib] showed an IC50 (BTK) of over 10 µM, an IC50 (PLK3) of over 10 µM and a GI50 (MM1.S) of over 5 µM. The IC50 (RSK2) was over 10 µM, the Intrinsic clearance ([1]; human liver microsomes) was “moderate metabolic stability” and the CLint scaled at 1 μM ([1]; human, pH 7.4) was 13.3 mL/min/kg. For the same compound, the IC50 (IKKA) was over 10 µM, the IC50 (EPHA2) was over 10 µM and the GI50 [2] was 0.048 ± 0.028 µM. The IC50 (LOK) was over 10 µM, the IC50 (SRC) was over 10 µM and the IC50 (AXL) was over 10 µM. For the same compound, the clinical response [3] was “complete cytogenetic and hematologic remission”, the GI50 (KMS-11 (myeloma)) was 0.362 ± 0.282 µM and the IC50 (MINK) was over 10 µM. It also gave an IC50 [4] of 0.0082 µM, an IC50 (CAMK2D) of over 10 µM and an IC50 (TGFBR1) of over 10 µM. The GI50 (KG1) was 0.001 µM, the IC50 (PAK4) was over 10 µM and the IC50 (FAK) was over 10 µM. It also gave a GI50 (A549) of over 5 µM, an IC50 (JNK1) of over 10 µM and an IC50 (CDK2) of over 10 µM. For the same compound, the “liver toxicity and changes in blood pressure” value [5] was “not observed”, the Papp at 120 min, 50 μM (Caco-2 permeability) was 11 ×10⁻⁶ cm/s and the “Caco-2 Papp” value (Caco-2 cell monolayers) was “moderate to high permeability”. It also gave a fraction unbound at 2 h, 1 μM ([6]; Sprague Dawley, pH 7.4, rat plasma) of 0.03, a fraction unbound at 2 h, 1 μM ([6]; pH 7.4, human plasma) of 0.113 and a GI50 (TF1-BCR-ABL) of over 5 µM. It also gave an IC50 (CLK3) of over 10 µM, an IC50 (PKCD) of over 10 µM and an IC50 (PIM2) of over 10 µM.
